Earlier results as cited in patent US20020160058A1, “Antialopecia agent” (priority 1996, published 2002).

Tested on: alopecia induced by adriamycin
Details: reported

Substance: tocopherol
- effect on alopecia induced by adriamycin (oral administration): preventive effect
- effect on alopecia induced by the combined use of adriamycin with other anticancer agents: no effect
